Numbers after ± are expanded uncertainties.
How the values were obtained:
[1] = 298.15 K, 100 kPa, Liquid; for speed of sound: Frequency=3 MHz, Single path-length method; for mass density: Vibrating tube method
[2] = xn = mol fraction of the nth substance listed; conditions: 298.15 K, 100 kPa, Liquid; for speed of sound: Frequency=3 MHz, Single path-length method; for mass density: Vibrating tube method
[3] = excess molar enthalpy (molar enthalpy of mixing); xn = mol fraction of the nth substance listed; conditions: 298.15 K, 100 kPa, Liquid, Power-compensation calorimetry

CO [methanol]
[1]
Conditions	mass density [kg/m3]	speed of sound [m/s]
–	786.53 ± 0.15	1104 ± 0.55

CO [methanol] + CCOC(=O)C(C)O
[2], x2 = 0
Conditions	mass density [kg/m3]	speed of sound [m/s]
–	786.53 ± 0.15	1104 ± 0.55

CO [methanol] + COC(=O)C(C)O
[2], x2 = 0
Conditions	mass density [kg/m3]	speed of sound [m/s]
–	786.53 ± 0.15	1104 ± 0.55

COC(=O)C(C)O (stereo not given) [methyl 2-hydroxypropanoate]
[1]
Conditions	mass density [kg/m3]	speed of sound [m/s]
–	1087.35 ± 0.13	1339.3 ± 0.59

COC(=O)C(C)O (stereo not given) [methyl 2-hydroxypropanoate] + CCCCO
Conditions	excess molar enthalpy, [3] [kcal/mol]	mass density, [2] [kg/m3]	speed of sound, [2] [m/s]
x1 = 0.054	0.0531 ± 0.00167	–	–
x1 = 0.0589	–	822.83 ± 0.15	1242.8 ± 0.52
x1 = 0.1088	–	837.09 ± 0.15	1245.1 ± 0.52
x1 = 0.132	0.109 ± 0.00191	–	–
x1 = 0.174	0.138 ± 0.00215	–	–
x1 = 0.1905	–	860.37 ± 0.14	1249.8 ± 0.53
x1 = 0.287	0.186 ± 0.00239	–	–
x1 = 0.2973	–	890.71 ± 0.14	1257.2 ± 0.54
x1 = 0.384	0.204 ± 0.00263	–	–
x1 = 0.3887	–	916.62 ± 0.13	1265 ± 0.54
x1 = 0.487	0.207 ± 0.00263	–	–
x1 = 0.4999	–	948.04 ± 0.13	1275.8 ± 0.55
x1 = 0.552	0.2 ± 0.00263	–	–
x1 = 0.5977	–	975.58 ± 0.13	1286.4 ± 0.56
x1 = 0.6976	–	1003.57 ± 0.12	1298.3 ± 0.56
x1 = 0.705	0.16 ± 0.00215	–	–
x1 = 0.75	0.136 ± 0.00215	–	–
x1 = 0.7926	–	1030.02 ± 0.13	1310.6 ± 0.57
x1 = 0.864	0.0767 ± 0.00143	–	–
x1 = 0.9107	–	1062.72 ± 0.13	1326.6 ± 0.58
x1 = 0.934	0.039 ± 0.0012	–	–
x1 = 0.9577	–	1075.69 ± 0.14	1333.2 ± 0.59
x1 = 1	–	1087.35 ± 0.13	1339.3 ± 0.59

COC(=O)C(C)O (stereo not given) [methyl 2-hydroxypropanoate] + CCCO
Conditions	excess molar enthalpy, [3] [kcal/mol]	mass density, [2] [kg/m3]	speed of sound, [2] [m/s]
x1 = 0.045	–	815.93 ± 0.16	1211.5 ± 0.55
x1 = 0.05	0.0457 ± 0.00143	–	–
x1 = 0.1025	–	836.2 ± 0.15	1218.9 ± 0.55
x1 = 0.104	0.0832 ± 0.00167	–	–
x1 = 0.2047	–	870.81 ± 0.15	1232.5 ± 0.56
x1 = 0.207	0.134 ± 0.00191	–	–
x1 = 0.3	–	901.52 ± 0.14	1245.4 ± 0.56
x1 = 0.309	0.162 ± 0.00215	–	–
x1 = 0.4004	–	932.31 ± 0.13	1259.8 ± 0.56
x1 = 0.411	0.172 ± 0.00215	–	–
x1 = 0.501	0.17 ± 0.00215	–	–
x1 = 0.5012	–	961.71 ± 0.13	1274.1 ± 0.57
x1 = 0.5911	–	986.71 ± 0.12	1286.9 ± 0.57
x1 = 0.607	0.157 ± 0.00215	–	–
x1 = 0.6935	–	1013.88 ± 0.12	1300.8 ± 0.58
x1 = 0.707	0.133 ± 0.00191	–	–
x1 = 0.7978	–	1040.2 ± 0.13	1315.1 ± 0.58
x1 = 0.802	0.101 ± 0.00167	–	–
x1 = 0.9	–	1064.67 ± 0.13	1327.6 ± 0.59
x1 = 0.902	0.0531 ± 0.0012	–	–
x1 = 0.945	–	1075.04 ± 0.13	1333.1 ± 0.59
x1 = 0.95	0.0258 ± 0.0012	–	–
x1 = 1	–	1087.35 ± 0.13	1339.3 ± 0.59

COC(=O)C(C)O (stereo not given) [methyl 2-hydroxypropanoate] + CCO
Conditions	excess molar enthalpy, [3] [kcal/mol]	mass density, [2] [kg/m3]	speed of sound, [2] [m/s]
x1 = 0.0492	–	809.35 ± 0.17	1158 ± 0.55
x1 = 0.056	0.0277 ± 0.000956	–	–
x1 = 0.0968	–	831.45 ± 0.16	1172.3 ± 0.55
x1 = 0.104	0.0497 ± 0.0012	–	–
x1 = 0.185	0.0801 ± 0.0012	–	–
x1 = 0.2099	–	879.28 ± 0.15	1203.7 ± 0.56
x1 = 0.225	0.0932 ± 0.00143	–	–
x1 = 0.281	0.105 ± 0.00143	–	–
x1 = 0.3161	–	918.72 ± 0.14	1229.4 ± 0.56
x1 = 0.3921	–	944.17 ± 0.13	1245.2 ± 0.57
x1 = 0.464	0.11 ± 0.00143	–	–
x1 = 0.4987	–	976.29 ± 0.13	1266.1 ± 0.57
x1 = 0.543	0.102 ± 0.00143	–	–
x1 = 0.5872	–	1000.2 ± 0.12	1283.3 ± 0.57
x1 = 0.666	0.0825 ± 0.0012	–	–
x1 = 0.6963	–	1026.72 ± 0.12	1300.8 ± 0.58
x1 = 0.794	0.0569 ± 0.000956	–	–
x1 = 0.8007	–	1049.53 ± 0.13	1316.4 ± 0.58
x1 = 0.8814	–	1065.65 ± 0.13	1326.5 ± 0.59
x1 = 0.903	0.0282 ± 0.000717	–	–
x1 = 0.952	0.0151 ± 0.000621	–	–
x1 = 0.9535	–	1079.11 ± 0.13	1334.4 ± 0.59
x1 = 1	–	1087.35 ± 0.13	1339.3 ± 0.59

COC(=O)C(C)O (stereo not given) [methyl 2-hydroxypropanoate] + CO
Conditions	excess molar enthalpy, [3] [kcal/mol]	mass density, [2] [kg/m3]	speed of sound, [2] [m/s]
x1 = 0.0565	–	826.67 ± 0.19	1134.5 ± 0.56
x1 = 0.0945	–	850.35 ± 0.17	1152.9 ± 0.56
x1 = 0.104	0.0038 ± 0.000215	–	–
x1 = 0.151	0.00392 ± 0.000215	–	–
x1 = 0.1933	–	902.12 ± 0.15	1196.4 ± 0.56
x1 = 0.262	0.00117 ± 0.000215	–	–
x1 = 0.287	0.000215 ± 0.000215	–	–
x1 = 0.3029	–	947.03 ± 0.14	1234.1 ± 0.56
x1 = 0.316	-0.000956 ± 0.000215	–	–
x1 = 0.3844	–	974.04 ± 0.13	1254.7 ± 0.57
x1 = 0.399	-0.00413 ± 0.000239	–	–
x1 = 0.482	-0.00719 ± 0.000239	–	–
x1 = 0.5099	–	1008.1 ± 0.12	1282.4 ± 0.57
x1 = 0.595	-0.00903 ± 0.000263	–	–
x1 = 0.6105	–	1029.88 ± 0.12	1301.4 ± 0.57
x1 = 0.687	-0.00937 ± 0.000263	–	–
x1 = 0.7215	–	1049.84 ± 0.12	1318.2 ± 0.58
x1 = 0.798	-0.00686 ± 0.000239	–	–
x1 = 0.8206	–	1064.82 ± 0.13	1329.8 ± 0.58
x1 = 0.879	-0.0044 ± 0.000239	–	–
x1 = 0.9225	–	1078.13 ± 0.13	1337.1 ± 0.59
x1 = 0.945	-0.00194 ± 0.000215	–	–
x1 = 0.9601	–	1082.7 ± 0.13	1338.8 ± 0.59
x1 = 1	–	1087.35 ± 0.13	1339.3 ± 0.59

CCCO [propan-1-ol]
[1]
Conditions	mass density [kg/m3]	speed of sound [m/s]
–	799.66 ± 0.15	1206 ± 0.55

CCCO [propan-1-ol] + CCOC(=O)C(C)O
[2], x2 = 0
Conditions	mass density [kg/m3]	speed of sound [m/s]
–	799.66 ± 0.15	1206 ± 0.55

CCCO [propan-1-ol] + COC(=O)C(C)O
[2], x2 = 0
Conditions	mass density [kg/m3]	speed of sound [m/s]
–	799.66 ± 0.15	1206 ± 0.55

— the NIST ThermoML archive (doi:10.1016/j.jct.2018.07.013)
